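Cultured in 96-well plates, cells were exposed to test compound for 48 hours across five concentrations. GI50: concentration for 50% inhibition of growth. At the TGI there is no net growth.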

TGI and GI50 data for 13 compounds are collected here from PubChem BioAssay (NCI).

Some test systems named below: SF-268 CNS; HOP-62 NSCLC; COLO 205 colon; NCI-H522 lung; SNB-75 CNS; SNB-19 CNS; 786-0 renal; TK-10 renal; NCI/ADR-RES ovarian; MDA-MB-435.
Test in all cases: NCI-60 cell line screen, 48 h

With `O=C(OCCCl)C1OC(n2cc(F)c(=O)[nH]c2=O)CC1O` (stereo unspecified), the TGI with SF-268 CNS, in the assay on HOP-62 NSCLC, with COLO 205 colon, in the assay with NCI-H522 lung, in the assay on SNB-75 CNS and with SNB-19 CNS was greater than 100 µM each time. Moreover, the TGI with 786-0 renal and in the assay with TK-10 renal was greater than 100 µM each time.
Regarding `CC(C)(C)c1cc(CCCCCCCC2(CCCCCCCc3cc(C(C)(C)C)cc(C(C)(C)C)c3)OC(COCCOCCCCCC#N)C(COCCOCCCCCC#N)O2)cc(C(C)(C)C)c1` (stereo unspecified), the TGI with SF-268 CNS, with HOP-62 NSCLC, in the assay on COLO 205 colon, with NCI-H522 lung, with SNB-75 CNS and in the assay with SNB-19 CNS was greater than 100 µM in each case. Besides, the TGI in the assay with 786-0 renal and in the assay on TK-10 renal was greater than 100 µM each time.
Turning to `Cc1ccc(/C=C(\NC(=O)c2ccccc2)c2nc3ccccc3[nH]2)cc1`, the TGI with SF-268 CNS, in the assay on HOP-62 NSCLC, in the assay with COLO 205 colon, in the assay on NCI-H522 lung, with SNB-19 CNS and in the assay with 786-0 renal was greater than 100 µM throughout. Further, the TGI in the assay on TK-10 renal was greater than 100 µM.
`Cc1ccc(NC(=O)CC/C(CC(=O)C(C)(C)C)=N\NC(=O)C[n+]2ccccc2)cc1C`: the TGI with SF-268 CNS, in the assay on HOP-62 NSCLC, in the assay with COLO 205 colon, with NCI-H522 lung, with SNB-75 CNS and in the assay with SNB-19 CNS was greater than 100 µM throughout. Also, the TGI with 786-0 renal and in the assay on TK-10 renal was greater than 100 µM in each case.
With `O=C(Cc1nc2ccccc2o1)C(=O)Nc1cccc(Cl)c1`, the TGI in the assay on SF-268 CNS, in the assay on HOP-62 NSCLC, with COLO 205 colon, with NCI-H522 lung, in the assay on SNB-75 CNS and with SNB-19 CNS was greater than 100 µM each time. For the same compound, the TGI with 786-0 renal and in the assay with TK-10 renal was greater than 100 µM each time.
Consider `NC1CCCCC1N.O=C1C=C/C(=C(/c2ccc(O)c(Br)c2)c2ccccc2S(=O)(=O)[O-])C=C1Br.O=C1C=C/C(=C(/c2ccc(O)c(Br)c2)c2ccccc2S(=O)(=O)[O-])C=C1Br.[Pt+4]`, for which the GI50 is 0.885 µM with SF-268 CNS; 7.88 µM in the assay on HOP-62 NSCLC; 1.64 µM in the assay on COLO 205 colon; 1.9 µM with NCI-H522 lung; 0.992 µM with SNB-75 CNS; 7.14 µM with SNB-19 CNS. Moreover, the GI50 is 2.42 µM in the assay on 786-0 renal and 57.2 µM in the assay on TK-10 renal. The TGI in the assay with SF-268 CNS is greater than 100 µM; in the assay with HOP-62 NSCLC, 9.95 µM; in the assay on COLO 205 colon, 40.6 µM; in the assay on NCI-H522 lung, 22.6 µM; with SNB-75 CNS, greater than 100 µM; in the assay with SNB-19 CNS, greater than 100 µM. Moreover, the TGI in the assay with 786-0 renal and with TK-10 renal was greater than 100 µM in each case.
`O=C(N/C(=C\c1cccc([N+](=O)[O-])c1)c1nc2ccccc2[nH]1)c1ccccc1`: the TGI with SF-268 CNS, in the assay on HOP-62 NSCLC, in the assay with COLO 205 colon, in the assay on NCI-H522 lung, with SNB-75 CNS and in the assay with SNB-19 CNS was greater than 100 µM each time. The compound further displayed a TGI in the assay on 786-0 renal greater than 100 µM.
On to `NS(=O)(=O)c1ccc(NC(=O)Cc2nc3ccccc3s2)cc1`, for which the TGI in the assay on SF-268 CNS is 30.7 µM; in the assay with HOP-62 NSCLC, 50.9 µM; in the assay with COLO 205 colon, 34 µM; with NCI-H522 lung, 33.2 µM; in the assay with SNB-75 CNS, 30.4 µM; in the assay with SNB-19 CNS, 49.5 µM. Besides, the values for the TGI in the assay with 786-0 renal and in the assay on TK-10 renal were 33.5 µM and 44.9 µM, respectively.
Take `CC1=NN(C(=O)Nc2ccc(Cl)cc2)C(=O)C2CCC(=O)N12` (stereo unspecified): the TGI in the assay on SF-268 CNS, in the assay on HOP-62 NSCLC, in the assay on COLO 205 colon, in the assay on SNB-75 CNS, in the assay with SNB-19 CNS and in the assay with 786-0 renal was greater than 100 µM in each case. Besides, the TGI with TK-10 renal was greater than 100 µM.
Take `c1ccncc1`: the TGI in the assay on SF-268 CNS, with HOP-62 NSCLC, in the assay with COLO 205 colon, in the assay on NCI-H522 lung, in the assay on SNB-75 CNS and in the assay on SNB-19 CNS was greater than 100 µM in each case. Moreover, the TGI in the assay on 786-0 renal and with TK-10 renal was greater than 100 µM in each case.
`COc1cc(N2C(=O)[C@H](c3ccccc3)C2c2ccc(SC)cc2)cc(OC)c1OC` (stereo partly specified): the GI50 is 0.0485 µM with SF-268 CNS; 0.0788 µM with HOP-62 NSCLC; 0.0367 µM in the assay on COLO 205 colon; 0.0335 µM in the assay on NCI/ADR-RES ovarian; 0.0232 µM in the assay with NCI-H522 lung; 0.04 µM in the assay on SNB-75 CNS. In addition, the GI50 with SNB-19 CNS is 0.0422 µM; with 786-0 renal it was 0.0349 µM; in the assay with TK-10 renal, 0.638 µM. Moreover, the TGI was greater than 100 µM in the assay on SF-268 CNS; greater than 100 µM with HOP-62 NSCLC; 1.46 µM with COLO 205 colon; greater than 100 µM in the assay with NCI/ADR-RES ovarian; 0.0734 µM in the assay on NCI-H522 lung; greater than 100 µM in the assay with SNB-75 CNS. For the same compound, the results for the TGI in the assay on SNB-19 CNS, in the assay with 786-0 renal and in the assay with TK-10 renal were greater than 100 µM, 22.9 µM and greater than 100 µM, respectively.
Turning to `CCN(CC)CC(C)C(=O)/C=C/c1ccc(C)cc1` (stereo unspecified), the TGI worked out at 4.51 µM in the assay with SF-268 CNS; 33.5 µM with HOP-62 NSCLC; 3.02 µM with COLO 205 colon; 3.17 µM in the assay on SNB-75 CNS; 30.5 µM in the assay with SNB-19 CNS; 3.65 µM in the assay on 786-0 renal. In the assay with TK-10 renal, this compound displayed a TGI of 3.69 µM.
For the compound `Cc1cc(N2CCCCC2)nc(NC2CCCC(Nc3ccnc4cc(Cl)ccc34)C2)n1` (stereo unspecified), the GI50 is 1.46 µM with HOP-62 NSCLC; 1.44 µM in the assay with COLO 205 colon; 1.95 µM with NCI-H522 lung; 1.32 µM in the assay with MDA-MB-435; 1.39 µM in the assay on SNB-75 CNS; 1.58 µM in the assay with SNB-19 CNS. The results for the GI50 in the assay with 786-0 renal and in the assay with TK-10 renal were 1.27 µM and 2.07 µM, respectively. Moreover, the TGI is 2.91 µM with HOP-62 NSCLC; 2.98 µM in the assay on COLO 205 colon; 3.75 µM in the assay with NCI-H522 lung; 2.73 µM in the assay on MDA-MB-435; 3.18 µM in the assay with SNB-75 CNS; 3.44 µM in the assay on SNB-19 CNS. The TGI was found to be 2.59 µM in the assay on 786-0 renal and 4.25 µM with TK-10 renal.
